Read-outs that look alike come from different tables or passages of the source. Values belong to the compound of their own block, whether it stands above or below them.
Tested on: HL60 cells
Test: Inhibition effect of HL60 cell line growth (MTT, 3 days)
Assay type: cell-based
Settings: Homo sapiens, HL-60, 72 h, read-out: HL60 Growth Inhibition
Description: 1. Inhibition Effect of HL60 Cell Line Growth
A 10% FBS-contained RPMI1640 badge was used for culturing HL60 cells. The test substance was prepared by dissolving in DMSO to a concentration of 10 mg/ml, and continuously diluting with PBS to a final concentration of 100 μg/ml to 0.03 μg/ml. In a 96-well microplate, 180 μl of the badge containing 6.0×10^4 cells/ml of cells and 20 μl of continuously diluted test substance were added. The mixture was cultured at 37° C. with 5% CO2 atmosphere for 3 days. After completion of the cultivation, 50 μl of a solution of 1.25 mg/ml MTT (3-(4,5-dimethylthiazol-2-yl)-2,5-diphenyltetrazolium bromide) dissolved in PBS was added to all wells, and the resulting mixture was reacted at 37° C. for 3 hours. Thus formed formazan crystals were dissolved in 150 μl of DMSO, and an absorbance was measured at 570 nm.

[1] = HL60 cells, 3 days culture, MTT, absorbance 570 nm

Structure (SMILES): COc1ccc(-c2cccnc2)cc1C(=O)c1cc(OC)c(OC)c(OC)c1 [Compound 200, (2-methoxy-5-(pyridin-3-yl)phenyl)(3,4,5-trimethoxyphenyl)methanone]
- IC50: 130 nM

Structure (SMILES): COc1ccc(-c2ccco2)cc1C(=O)c1cc(OC)c(OC)c(OC)c1 [Compound 203, (5-(furan-2-yl)-2-methoxyphenyl)(3,4,5-trimethoxyphenyl)methanone]
- IC50 [1]: 35 nM

Structure (SMILES): COc1cc(C(=O)c2cc(-c3ccco3)cc(OC)c2OC)cc(OC)c1OC [Compound 206, (5-(furan-2-yl)-2,3-dimethoxyphenyl)(3,4,5-trimethoxyphenyl)methanone]
- IC50: 145 nM

Structure (SMILES): COc1ccc(-c2ccc(OC)c(C(=O)c3cc(OC)c(OC)c(OC)c3)c2)cc1 [Compound 213, (4,4′-dimethoxybiphenyl-3-yl)(3,4,5-trimethoxyphenyl)methanone]
- IC50 [1]: 137 nM

Structure (SMILES): COc1cc(C(=O)c2cc(-c3ccco3)ccc2[N+](=O)[O-])cc(OC)c1OC [Compound 224, (5-(furan-2-yl)-2-nitrophenyl)(3,4,5-trimethoxyphenyl) methanone]
- IC50 [1]: 110 nM

Structure (SMILES): COc1cc(C(=O)c2cc(-c3ccco3)ccc2N)cc(OC)c1OC [Compound 225, (2-amino-5-(furan-2-yl)phenyl)(3,4,5-trimethoxyphenyl)methanone]
- IC50 [1]: 58 nM

Structure (SMILES): COc1ccc(-c2ccc(N)c(C(=O)c3cc(OC)c(OC)c(OC)c3)c2)cc1 [Compound 226, (4-amino-4′-methoxybiphenyl-3-yl)(3,4,5-trimethoxyphenyl)methanone]
- IC50: 370 nM

Structure (SMILES): COc1cc(C(=O)c2cc(-c3ccco3)ccc2NC(C)=O)cc(OC)c1OC [Compound 231, N-(4-(furan-2-yl)-2-(3,4,5-trimethoxybenzoyl)phenyl)acetamide]
- IC50 [1]: 120 nM

Structure (SMILES): COc1cc(C(=O)c2cc(-c3ccco3)ccc2NS(C)(=O)=O)cc(OC)c1OC [Compound 235, N-(4-(furan-2-yl)-2-(3,4,5-trimethoxybenzoyl)phenyl)methanesulfonamide]
- IC50 [1]: 280 nM

Structure (SMILES): COc1cc(C(=O)c2cc(-c3ccco3)ccc2NC(=O)CN)cc(OC)c1OC [Compound 237, 2-amino-N-(4-(furan-2-yl)-2-(3,4,5-trimethoxybenzoyl)phenyl)acetamide]
- IC50 [1]: 270 nM

Structure (SMILES): C=CCNc1ccc(-c2ccco2)cc1C(=O)c1cc(OC)c(OC)c(OC)c1 [Compound 238, (2-(allylamino)-5-(furan-2-yl)phenyl)(3,4,5-trimethoxyphenyl)methanone]
- IC50 [1]: 340 nM

Structure (SMILES): COc1cc(C(=O)c2cc(-c3ccco3)ccc2OS(C)(=O)=O)cc(OC)c1OC [Compound 241, methanesulfonic acid 4-(furan-2-yl)-2-(3,4,5-trimethoxybenzoyl)phenyl]
- IC50 [1]: 90 nM

Structure (SMILES): COc1ccc(-c2ccco2)cc1C(=O)c1cc(CO)c(OC)c(OC)c1 [Compound 249, (5-(furan-2-yl)-2-methoxyphenyl)(3-(hydroxymethyl)-4,5-dimethoxyphenyl)methanone]
- IC50 [1]: 120 nM

Structure (SMILES): COc1ccc(-c2ccco2)cc1C(=O)c1cc(C)c(OC)c(C)c1 [Compound 264, (5-(furan-2-yl)-2-methoxyphenyl)(4-methoxy-3,5-dimethylphenyl)methanone]
- IC50 [1]: 480 nM

Structure (SMILES): COCOc1c(C)cc(C(=O)c2cc(-c3ccco3)ccc2OC)cc1C [Compound 265, (5-(furan-2-yl)-2-methoxyphenyl)(4-(methoxymethoxy)-3,5-dimethylphenyl)methanone]
- IC50 [1]: 390 nM

Structure (SMILES): C=CCc1cc(C(=O)c2cc(-c3ccco3)ccc2OC)cc(OC)c1O [Compound 269, (3-allyl-4-hydroxy-5-methoxyphenyl)(5-(furan-2-yl)-2-methoxyphenyl)methanone]
- IC50 [1]: 1690 nM

Structure (SMILES): COc1cc(C(=O)c2ccc(-n3cncn3)cc2N)cc(OC)c1OC [Compound 272, (2-amino-4-(1H-1,2,4-triazol-1-yl)phenyl)(3,4,5-trimethoxyphenyl)methanone]
- IC50 [1]: 1340 nM

Structure (SMILES): COc1cc(C(=O)c2cc(-c3nccs3)ccc2NC(C)=O)cc(OC)c1OC [Compound 277, N-(4-(thiazol-2-yl)-2-(3,4,5-trimethoxybenzoyl)phenyl)acetamide]
- IC50 [1]: 110 nM

Structure (SMILES): COc1cc(C(=O)c2cc(-c3nccs3)ccc2N)cc(OC)c1OC [Compound 278, (2-amino-5-(thiazol-2-yl)phenyl)(3,4,5-trimethoxyphenyl)methanone]
- IC50: 30 nM

Structure (SMILES): COc1cc(C(=O)c2cc(-c3cccs3)ccc2NC(C)=O)cc(OC)c1OC [Compound 279, N-(4-(thiophen-2-yl)-2-(3,4,5-trimethoxybenzoyl)phenyl)acetamide]
- IC50 [1]: 130 nM

Structure (SMILES): CNc1ccc(-c2ccco2)cc1C(=O)c1cc(OC)c(OC)c(OC)c1 [Compound 282, (5-(furan-2-yl)-2-(methylamino)phenyl)(3,4,5-trimethoxyphenyl)methanone]
- IC50 [1]: 150 nM

Structure (SMILES): COc1cc(C(=O)c2cc(-c3cccs3)ccc2N)cc(OC)c1OC [Compound 283, (2-amino-5-(thiophen-2-yl)phenyl)(3,4,5-trimethoxyphenyl)methanone]
- IC50 [1]: 48 nM

The remaining lines, values ahead:

- IC50 [1]: 70 nM
Structure (SMILES): COc1cc(C(=O)c2cc(-c3nccs3)ccc2N)cc(CO)c1OC [Compound 286, (2-amino-5-(thiazol-2-yl)phenyl)(3-(hydroxymethyl)-4,5-dimethoxyphenyl)methanone]

- IC50 [1]: 7 nM
Structure (SMILES): COc1cc(C(=O)c2cc(-c3ncco3)ccc2N)cc(OC)c1OC [Compound 289, (2-amino-5-(oxazol-2-yl)phenyl)(3,4,5-trimethoxyphenyl)methanone]

- IC50 [1]: 17 nM
Structure (SMILES): COc1cc(C(=O)c2cc(-c3ccccn3)ccc2N)cc(OC)c1OC [Compound 293, (2-amino-5-(pyridin-2-yl)phenyl)(3,4,5-trimethoxyphenyl)methanone]

- IC50 [1]: 1230 nM
Structure (SMILES): COc1cc(C(=O)c2cc(-c3ncco3)ccc2NC(C)=O)cc(OC)c1OC [Compound 296, N-(4-(oxazol-2-yl)-2-(3,4,5-trimethoxybenzoyl)phenyl)acetamide]

- IC50 [1]: 35 nM
Structure (SMILES): COc1cc(C(=O)c2cc(-c3csc(N)n3)ccc2N)cc(OC)c1OC [Compound 297, (2-amino-5-(2-aminothiazol-4-yl)phenyl)(3,4,5-trimethoxyphenyl)methanone]

- IC50 [1]: 160 nM
Structure (SMILES): COc1cc(C(=O)c2cc(-c3csc(C)n3)ccc2N)cc(OC)c1OC [Compound 298, (2-amino-5-(2-methylthiazol-4-yl)phenyl)(3,4,5-trimethoxyphenyl)methanone]

- IC50 [1]: 170 nM
Structure (SMILES): COc1cc(C(=O)c2cc(-c3ccsc3)ccc2NC(C)=O)cc(OC)c1OC [Compound 300, N-(4-(thiophen-3-yl)-2-(3,4,5-trimethoxybenzoyl)phenyl)acetamide]

- IC50 [1]: 80 nM
Structure (SMILES): COc1cc(C(=O)c2cc(-c3ccsc3)ccc2N)cc(OC)c1OC [Compound 301, (2-amino-5-(thiophen-3-yl)phenyl)(3,4,5-trimethoxyphenyl)methanone]

- IC50 [1]: 190 nM
Structure (SMILES): COc1cc(C(=O)c2cc(-c3nccs3)ccc2NS(C)(=O)=O)cc(OC)c1OC [Compound 308, N-(4-(thiazol-2-yl)-2-(3,4,5-trimethoxybenzoyl)phenyl)methanesulfonamide]

- IC50 [1]: 140 nM
Structure (SMILES): COc1cc(C(=O)c2cc(-c3nccs3)ccc2NC=O)cc(OC)c1OC [Compound 316, N-(4-(thiazol-2-yl)-2-(3,4,5-trimethoxybenzoyl)phenyl)formamide]

- IC50 [1]: 170 nM
Structure (SMILES): COc1cc(C(=O)c2cc(-c3ccco3)ccc2-n2cncn2)cc(OC)c1OC [Compound 322, (5-(furan-2-yl)-2-(1H-1,2,4-triazol-1-yl)phenyl)(3,4,5-trimethoxyphenyl)methanone]
